The text below walks through data of publication PMC9481570, “A small molecule antagonist of SMN disrupts the interaction between SMN and RNAP II” (Nature Communications, 2022).

Assay in all cases: Affinity-purification and mass spectrometry (AP-MS) chemical proteomics, all proteins;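 on Difference: 200 µM free competitor with 20 µM biotin probe overnight in lysate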
Common to all, as to assay type: binding

In experiment [1] the target is T1, proteins displaced from immobilized biotin-Cmpd 1 pulldowns (U2OS cell lysate) (Homo sapiens, UniProt P40939).
T1 construct: endogenous in cells; host or cells: U2OS
To be noted: GN=HADHA (P40939). As for the experimental part:
(§1) The samples for AP-MS were prepared following pulldown procedure as previously described with minor modifications. Briefly, U2OS cells were lysed in RIPA buffer and the cell lysate was equally divided into two groups: (1) DMSO group (control group): the cell lysate was incubated with 20 μM biotin-labeled compound 1; (2) Cpmd 1 group (sample group): the cell lysate was incubated with 20 μM biotin-labeled compound 1 and 200 μM free compound 1. Each group contains three biological replicates. They were incubated overnight at 4 °C, then 30 μL streptavidin beads (Thermo Fisher, 20353) was added and incubated at 4 °C for 1 h. The beads were then washed with RIPA buffer for 3 times, 10 min/time.
(§2) Beads were rinsed twice with 50 mM TEAB, pH 7.55, before eluting proteins with 25 μL of 5% SDS, 50 mM TEAB, pH 7.55. The sample was then centrifuged at 17,000 × g for 10 min to remove any debris. Proteins were reduced with 20 mM TCEP (Thermo Fisher, 77720) and incubated at 65 °C for 30 min. The sample was cooled to room temperature and 1 μL of 0.5 M iodoacetamide acid was added and allowed to react for 20 min in dark. Phosphoric acid (12%, 2.75 μL) was added to the protein solution, followed by adding 165 μL of binding buffer (90% methanol, 100 mM TEAB, pH 7.1). The resulting solution was added to S-Trap spin column (protifi.com) and passed through the column using a bench top centrifuge (30 s spin at 4000 × g). The spin column was washed with 400 μL of binding buffer and centrifuged. This step was repeated two more times. Then trypsin was added to the protein mixture at a mass ratio of 1:25 in 50 mM TEAB, pH 8.0, and the sample was incubated at 37 °C for 4 h. Peptides were eluted with 80 μL of 50 mM TEAB, followed by 80 μL of 0.2% formic acid, and finally 80 μL of 50% acetonitrile, 0.2% formic acid. The combined peptide solution was then dried in a speed vac and resuspended in 2% acetonitrile, 0.1% formic acid, 97.9% water and placed in an autosampler vial.
(§3) Samples were analyzed by nanoLC-MS/MS (nanoRSLC, Thermo Fisher) using an Aurora series (Ion Opticks) reversed phase HPLC column (25 cm length × 75 µm inner diameter) and directly injected to an Orbitrap Eclipse (Thermo Fisher) using a 120 min gradient (mobile phase A = 0.1% formic acid, mobile phase B = 99.9% acetonitrile with 0.1% formic acid; hold 2% B for 5 min, 2–6% B in 0.1 min, 6–25% in 100 min, 25–50% in 15 min) at a flow rate of 350 nL/min. Eluted peptide ions were analyzed using a data-dependent acquisition (DDA) method with resolution settings of 120,000 and 15,000 (at m/z 200) for MS1 and MS2 scans, respectively. DDA-selected peptides were fragmented using stepped high energy collisional dissociation (27, 32, and 37%).
(§4) The data of AP-MS were analyzed as a previously described method with minor modifications. Briefly, the raw MS files were searched with MaxQuant software (version 1.6.1.1, www.maxquant.org)[56] against the UniProt human protein database (www.uniprot.org) concatenated with common contaminants and the decoy database. The mass tolerance for precursor ions was set to 20 ppm and 4.5 ppm for the first and main search, respectively. The cysteine carbamidomethylation was set as fixed modification and methionine oxidation and N-terminal acetylation as variable modifications. Enzyme specificity was set to trypsin and a maximum missed cleavage was set as 2. The 1% false discovery rate (FDR) at both peptide and protein levels was applied for the analysis. Relative protein quantification was based on the label-free quantification incorporated in the MaxQuant software. The iBAQ intensity of proteins was obtained for the control and experimental samples. The missing iBAQ intensity was replaced by a random number, which was calculated from a normal distribution with a width of 0.3 and a downshift of 1.8 defined by Perseus software (version 1.6.5.0). The P-value was calculated by performing two-sample Student’s t-test. […]

Experiment [2] concerns the target T2, proteins displaced from immobilized biotin-Cmpd 1 pulldowns (U2OS cell lysate) (Homo sapiens, UniProt P54098).
T2 construct: endogenous in cells; host or cells: U2OS
Conditions: GN=POLG (P54098). The procedure: as §1, §2, §3, §4

For experiment [3], the target named is T3, proteins displaced from immobilized biotin-Cmpd 1 pulldowns (U2OS cell lysate) (Homo sapiens, UniProt Q14566).
T3 construct: endogenous in cells; host or cells: U2OS
To be noted: GN=MCM6 (Q14566). As for the experimental part: as §1, §2, §3, §4

Experiment [4] deals with T4, proteins displaced from immobilized biotin-Cmpd 1 pulldowns (U2OS cell lysate) (Homo sapiens, UniProt Q92621).
T4 construct: endogenous in cells; host or cells: U2OS
To be noted: GN=NUP205 (Q92621). The procedure: as §1, §2, §3, §4

The target in experiment [5] is T5, proteins displaced from immobilized biotin-Cmpd 1 pulldowns (U2OS cell lysate) (Homo sapiens, UniProt Q96AE4).
T5 construct: endogenous in cells; host or cells: U2OS
To be noted: GN=FUBP1 (Q96AE4). As for the experimental part: as §1, §2, §3, §4

The target in experiment [6] is T6, proteins displaced from immobilized biotin-Cmpd 1 pulldowns (U2OS cell lysate) (Homo sapiens, UniProt Q96DA0).
T6 construct: endogenous in cells; host or cells: U2OS
Conditions: GN=ZG16B (Q96DA0). The procedure: as §1, §2, §3, §4

Experiment [7] has as its target T7, proteins displaced from immobilized biotin-Cmpd 1 pulldowns (U2OS cell lysate) (Homo sapiens, UniProt Q9NR12).
T7 construct: endogenous in cells; host or cells: U2OS
To be noted: GN=PDLIM7 (Q9NR12). As for the experimental part:
as §1, §2, §3, §4

Experiment [8] addresses T8, proteins displaced from immobilized biotin-Cmpd 1 pulldowns (U2OS cell lysate) (Homo sapiens, UniProt Q9NZM5).
T8 construct: endogenous in cells; host or cells: U2OS
To be noted: GN=NOP53 (Q9NZM5). As for the experimental part: as §1, §2, §3, §4

Experiment [9] addresses T9, proteins displaced from immobilized biotin-Cmpd 1 pulldowns (U2OS cell lysate) (Homo sapiens, UniProt Q9NZT1).
T9 construct: endogenous in cells; host or cells: U2OS
To be noted: GN=CALML5 (Q9NZT1). The procedure:
as §1, §2, §3, §4

Experiment [10] addresses T10, proteins displaced from immobilized biotin-Cmpd 1 pulldowns (U2OS cell lysate) (Homo sapiens, UniProt Q9UH17).
T10 construct: endogenous in cells; host or cells: U2OS
To be noted: GN=APOBEC3B (Q9UH17). The procedure:
as §1, §2, §3, §4

“And” between values parts separate entries of the source, which are not always exact repeats. Identical values can stand only once.

T4 sequence (Q92621 whole entry): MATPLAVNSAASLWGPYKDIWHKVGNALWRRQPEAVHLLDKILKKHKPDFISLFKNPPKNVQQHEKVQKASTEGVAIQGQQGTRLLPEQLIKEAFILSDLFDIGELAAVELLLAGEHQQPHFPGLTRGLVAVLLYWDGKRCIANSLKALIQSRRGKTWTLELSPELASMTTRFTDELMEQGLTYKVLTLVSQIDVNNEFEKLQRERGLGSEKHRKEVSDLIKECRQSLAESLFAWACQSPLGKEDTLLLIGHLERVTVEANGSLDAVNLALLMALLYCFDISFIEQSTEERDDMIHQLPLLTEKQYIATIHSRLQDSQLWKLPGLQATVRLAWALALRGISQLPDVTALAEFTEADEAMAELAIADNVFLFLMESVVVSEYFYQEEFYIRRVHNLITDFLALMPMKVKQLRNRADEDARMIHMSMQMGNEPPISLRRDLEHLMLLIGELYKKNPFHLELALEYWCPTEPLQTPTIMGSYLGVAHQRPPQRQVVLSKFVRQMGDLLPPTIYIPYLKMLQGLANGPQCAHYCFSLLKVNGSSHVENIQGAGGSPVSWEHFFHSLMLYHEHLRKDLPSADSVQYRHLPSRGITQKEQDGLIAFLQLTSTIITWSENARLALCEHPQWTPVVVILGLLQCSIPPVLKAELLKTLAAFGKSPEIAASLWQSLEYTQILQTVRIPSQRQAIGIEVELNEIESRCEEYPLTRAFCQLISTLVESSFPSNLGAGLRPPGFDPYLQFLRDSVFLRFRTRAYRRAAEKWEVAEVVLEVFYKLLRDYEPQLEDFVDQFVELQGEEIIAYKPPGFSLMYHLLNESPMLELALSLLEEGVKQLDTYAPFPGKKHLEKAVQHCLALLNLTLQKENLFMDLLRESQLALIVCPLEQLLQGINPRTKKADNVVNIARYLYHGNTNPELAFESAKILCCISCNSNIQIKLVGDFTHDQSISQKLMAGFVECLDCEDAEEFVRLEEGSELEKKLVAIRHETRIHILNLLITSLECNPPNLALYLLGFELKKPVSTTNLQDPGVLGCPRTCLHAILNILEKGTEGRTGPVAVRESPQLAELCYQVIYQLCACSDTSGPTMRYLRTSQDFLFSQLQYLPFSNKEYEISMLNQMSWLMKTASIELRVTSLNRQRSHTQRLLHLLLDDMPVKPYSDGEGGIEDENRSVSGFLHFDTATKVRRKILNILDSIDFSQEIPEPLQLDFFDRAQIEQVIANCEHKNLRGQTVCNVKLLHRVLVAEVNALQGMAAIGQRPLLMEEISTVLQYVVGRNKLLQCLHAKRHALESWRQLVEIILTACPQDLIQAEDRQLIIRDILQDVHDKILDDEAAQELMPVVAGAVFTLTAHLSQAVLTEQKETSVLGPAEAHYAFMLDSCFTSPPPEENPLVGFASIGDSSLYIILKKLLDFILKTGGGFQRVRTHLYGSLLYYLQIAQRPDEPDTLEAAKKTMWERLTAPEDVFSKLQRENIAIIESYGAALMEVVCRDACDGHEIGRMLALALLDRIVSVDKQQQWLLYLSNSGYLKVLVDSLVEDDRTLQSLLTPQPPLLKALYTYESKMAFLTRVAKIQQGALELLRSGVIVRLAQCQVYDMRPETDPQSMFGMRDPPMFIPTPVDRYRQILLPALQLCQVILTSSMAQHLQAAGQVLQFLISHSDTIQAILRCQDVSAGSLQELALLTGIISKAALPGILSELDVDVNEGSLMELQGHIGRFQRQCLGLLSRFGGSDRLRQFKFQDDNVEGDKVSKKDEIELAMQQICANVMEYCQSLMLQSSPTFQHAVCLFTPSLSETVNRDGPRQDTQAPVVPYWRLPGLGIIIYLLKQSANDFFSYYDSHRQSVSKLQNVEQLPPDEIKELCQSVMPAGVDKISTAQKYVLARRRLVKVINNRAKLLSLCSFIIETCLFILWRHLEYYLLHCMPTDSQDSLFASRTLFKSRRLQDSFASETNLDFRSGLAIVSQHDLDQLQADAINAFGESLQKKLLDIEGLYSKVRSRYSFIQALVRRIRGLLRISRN
T5 sequence (Q96AE4 whole entry): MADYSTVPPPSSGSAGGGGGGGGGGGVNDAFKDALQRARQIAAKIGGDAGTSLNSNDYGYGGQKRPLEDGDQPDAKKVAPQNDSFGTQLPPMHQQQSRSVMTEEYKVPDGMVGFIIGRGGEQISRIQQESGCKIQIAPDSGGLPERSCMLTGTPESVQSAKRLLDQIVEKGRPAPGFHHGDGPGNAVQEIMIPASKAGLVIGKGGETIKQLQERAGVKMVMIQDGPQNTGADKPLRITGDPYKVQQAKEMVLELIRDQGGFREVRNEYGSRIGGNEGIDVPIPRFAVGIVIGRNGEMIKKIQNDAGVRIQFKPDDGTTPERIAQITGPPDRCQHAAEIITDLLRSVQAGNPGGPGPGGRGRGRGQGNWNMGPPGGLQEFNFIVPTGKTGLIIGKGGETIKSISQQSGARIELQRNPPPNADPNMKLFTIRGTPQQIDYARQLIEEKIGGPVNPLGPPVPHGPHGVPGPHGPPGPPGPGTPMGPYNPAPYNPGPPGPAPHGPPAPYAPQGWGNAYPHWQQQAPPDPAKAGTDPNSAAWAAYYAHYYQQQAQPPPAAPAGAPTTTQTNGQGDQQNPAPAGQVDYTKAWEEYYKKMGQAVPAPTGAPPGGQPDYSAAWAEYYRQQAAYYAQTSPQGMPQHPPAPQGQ
T10 sequence (Q9UH17 whole entry): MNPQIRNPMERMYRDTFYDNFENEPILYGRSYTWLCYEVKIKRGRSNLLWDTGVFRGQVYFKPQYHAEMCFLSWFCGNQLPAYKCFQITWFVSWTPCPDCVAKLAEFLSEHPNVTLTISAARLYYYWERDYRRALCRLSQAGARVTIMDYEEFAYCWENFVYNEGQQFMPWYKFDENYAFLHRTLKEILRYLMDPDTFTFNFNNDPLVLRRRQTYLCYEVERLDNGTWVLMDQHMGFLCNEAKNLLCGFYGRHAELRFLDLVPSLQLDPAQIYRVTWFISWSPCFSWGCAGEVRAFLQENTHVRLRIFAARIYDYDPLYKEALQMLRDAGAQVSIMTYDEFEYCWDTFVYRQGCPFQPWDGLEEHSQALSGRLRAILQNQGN
T6 sequence (Q96DA0 17-172): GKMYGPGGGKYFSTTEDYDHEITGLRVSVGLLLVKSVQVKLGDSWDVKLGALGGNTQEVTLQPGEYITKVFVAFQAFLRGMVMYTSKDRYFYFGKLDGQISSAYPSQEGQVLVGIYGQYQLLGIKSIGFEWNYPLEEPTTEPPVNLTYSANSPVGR
T7 sequence (Q9NR12 whole entry): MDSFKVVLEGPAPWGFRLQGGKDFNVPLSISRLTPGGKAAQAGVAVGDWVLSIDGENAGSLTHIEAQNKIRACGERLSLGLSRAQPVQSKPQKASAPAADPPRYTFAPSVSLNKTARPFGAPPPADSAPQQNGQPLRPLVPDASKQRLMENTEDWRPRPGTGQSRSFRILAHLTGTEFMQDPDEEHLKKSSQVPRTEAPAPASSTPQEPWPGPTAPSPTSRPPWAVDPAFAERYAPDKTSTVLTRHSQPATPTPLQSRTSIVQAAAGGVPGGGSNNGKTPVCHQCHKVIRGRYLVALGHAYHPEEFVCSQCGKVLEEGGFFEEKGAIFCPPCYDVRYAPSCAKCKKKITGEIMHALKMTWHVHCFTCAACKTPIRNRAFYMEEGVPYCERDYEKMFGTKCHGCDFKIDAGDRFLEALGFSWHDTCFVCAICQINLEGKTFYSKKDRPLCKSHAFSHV
T1 sequence (P40939 37-763): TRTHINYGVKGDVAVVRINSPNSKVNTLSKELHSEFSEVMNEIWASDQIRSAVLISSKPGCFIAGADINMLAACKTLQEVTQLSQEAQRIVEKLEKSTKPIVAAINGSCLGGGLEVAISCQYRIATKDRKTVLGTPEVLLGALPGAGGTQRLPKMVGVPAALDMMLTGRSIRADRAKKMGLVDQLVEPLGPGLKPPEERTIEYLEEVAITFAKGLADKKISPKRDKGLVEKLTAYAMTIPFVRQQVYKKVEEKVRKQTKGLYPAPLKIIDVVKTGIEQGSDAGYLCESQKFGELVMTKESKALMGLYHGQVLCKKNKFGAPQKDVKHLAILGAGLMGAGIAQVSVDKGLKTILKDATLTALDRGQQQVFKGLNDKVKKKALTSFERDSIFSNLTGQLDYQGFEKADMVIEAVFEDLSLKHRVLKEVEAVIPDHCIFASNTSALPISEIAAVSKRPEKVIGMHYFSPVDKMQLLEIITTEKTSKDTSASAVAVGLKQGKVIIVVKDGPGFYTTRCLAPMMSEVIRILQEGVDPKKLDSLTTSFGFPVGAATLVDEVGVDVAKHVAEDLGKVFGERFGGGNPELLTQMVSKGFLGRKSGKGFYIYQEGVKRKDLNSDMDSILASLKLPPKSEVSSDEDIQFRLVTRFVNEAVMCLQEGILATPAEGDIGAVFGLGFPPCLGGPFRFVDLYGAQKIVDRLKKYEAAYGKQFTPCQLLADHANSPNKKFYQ
T9 sequence (Q9NZT1 whole entry): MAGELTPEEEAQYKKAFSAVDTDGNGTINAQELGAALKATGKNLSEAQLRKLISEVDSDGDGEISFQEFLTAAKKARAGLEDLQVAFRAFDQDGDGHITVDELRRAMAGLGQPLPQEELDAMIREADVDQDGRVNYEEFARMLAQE

On to `Cn1c2c(c(=N)c3c1CCC3)CCC2` [Compound 1, 4-methyl-2,3,4,5,6,7-hexahydrodicyclopenta[b,e]pyridin-8(1H)-imine], for which the Difference is on record as 0.947 in [1] (Cmpd minus DMSO, -LOG(P-value) 0.714126); 0.489 in [2] (Cmpd minus DMSO, -LOG(P-value) 0.92162); 1.097 in experiment [3] (Cmpd minus DMSO, -LOG(P-value) 0.814851); 1.661 in experiment [4] (Cmpd minus DMSO, -LOG(P-value) 0.772292); 1.187 in [5] (Cmpd minus DMSO, -LOG(P-value) 0.798774); -4.273 in experiment [6] (Cmpd minus DMSO, -LOG(P-value) 1.41535). For the same molecule, the Difference was 2.317 in experiment [7] (Cmpd minus DMSO, -LOG(P-value) 0.715156); 2.66 in experiment [8] (Cmpd minus DMSO, -LOG(P-value) 0.867991); -2.389 in [9] (Cmpd minus DMSO, -LOG(P-value) 2.02756); -0.8112 in experiment [10] (Cmpd minus DMSO, -LOG(P-value) 0.938202). Also, the “iBAQ Cmpd” value in experiment [1] (replicates 1-3) is 19.348 and 18.8178 and 18.412; in [2] (replicates 1-3), 17.0695 and 17.0761 and 17.6776; in [3] (replicates 1-3), 19.4847 and 18.183 and 18.682; in experiment [4] (replicates 1-3), 17.4605 and 16.7059 and 15.0689; in experiment [5] (replicates 1-3) it was 19.58 and 17.8353 and 18.5748; in experiment [6] (replicates 1-3) it was 15.4223 and 14.7351 and 17.7658. The “iBAQ Cmpd” value in experiment [7] (replicates 1-3) is 18.0201 and 21.1113 and 16.886; in [8] (replicates 1-3), 18.4766 and 17.8155 and 17.9258; in [9] (replicates 1-3), 18.8431 and 20.0939 and 20.182; in [10] (replicates 1-3) it was 21.4277 and 21.5751 and 21.8529.
